Test results reported in US7081476B2, “Tocopherol enriched compositions for reducing IL6 levels” (Galileo Pharmaceuticals, Inc., priority 2001, dated 2006).
“And” between values parts separate entries of the source, which are not always exact repeats. Equal entries are not always repeated. “Also recorded” adds a separate entry of the source.

How the values were obtained:
[1] = test system: inflammation secondary to exposure to arachidonic acid; experiment: Arachidonic acid mouse ear inflammation model; format: in vivo; settings: topical to left ear, CD-1 mice, one hour after treatment
Procedure: This assay measures the ability of test compounds to prevent or reduce inflammation secondary to oxazolone or arachidonic acid.
A. Arachidonic acid. Albino male CD-1 mice, 7–9 weeks old were used in this test. A 20% (w/v) arachidonic acid solution in acetone is prepared. Twenty microliters of the arachidonic acid solution is applied to the dorsal left ear of the mouse. Immediately thereafter, test compounds (20 μL in 70% ethanol/30% propylene glycol) are applied to the left ear. The untreated right ears served as control. Mice are sacrificed by CO2 inhalation, one hour after treatment. The left and right ears are removed and 7 mm punch biopsies taken from each. The punch biopsies are weighed, and the differences calculated. […] Other non-alpha-tocopherol enriched tocopherol compositions can be tested for their ability to reduce inflammation in this model.

expression of ELAM = experiment: Cell-ELAM (E-selectin) assay in LPS/IL-1β stimulated endothelial cells; format: cell-based; settings: for ELAM production (in words): activated endothelial cells
Procedure: Cell-ELAM Assay. Endothelial-Leukocyte Adhesion Molecule (ELAM), also known as E-selectin, is expressed on the surface of endothelial cells. In this assay, lipopolysaccharide (LPS) and IL-1β are used to stimulate the expression of ELAM; test agents are tested for their abilities to reduce this expression, in accordance with studies showing that reduction of leukocyte adhesion to endothelial cell surface is associated with decreased cellular damage (e.g., Takada, M., Et al., Transplantation 64: 1520–25, 1997; Steinberg, J. B., et al., J. Heart Lung Trans. 13:306–313, 1994).
Endothelial cells may be selected from any of a number of sources and cultured according to methods known in the art; including, for example, coronary artery endothelial cells, human brain microvascular endothelial cells (HBMEC; Hess, D. C., et al., Neurosci. Lett. 213(1): 37–40, 1996), or lung endothelial cells. Cells are conveniently cultured in 96-well plates. Cells are stimulated by adding a solution to each well containing 10 μg/ml LPS and 100 pg/ml IL-1β for 6 hours in the presence of test agent (specific concentrations and time may be adjusted depending on the cell type). Treatment buffer is removed and replaced with pre-warmed Fixing Solution® (100 μl/well) for 25 minutes at room temperature. Cells are then washed 3×, then incubated with Blocking Buffer (PBS+2% FBS) for 25 minutes at room temperature. Blocking Buffer containing Monoclonal E-Selectin Antibody (1:750, Sigma Catalog #S-9555) is added to each well. Plates are sealed and stored at 4° overnight. Plates are washed 4× with 160 μL Blocking Buffer per well. Second Antibody-HRP diluted 1:5000 in Blocking Buffer is then added (100 μL/well), and plates are incubated at room temperature (protected from light) for two hours. Plates are then washed 4× with Blocking Buffer before addition of 100 μL of ABTS Substrate solution at room temperature (Zymed, Catalog #00–2024). Wells are allowed to develop for 35 minutes, before measurement at 402 nm in a Fluoroskan® Reader with shake program for 10 seconds. Positive results are recorded as a decrease in ELAM concentration in tested wells, as compared to control wells.

[2] = test system: CRP production in human Hep3B cells; experiment: Human Hep3B cells CRP assay (IL-1β, IL-6 and dexamethasone stimulated, CRP ELISA); format: cell-based; settings: for reducing CRP production/levels (in words): Hep3B cells stimulated with IL-1B, IL-6 and dexamethasone
Description: A. Human Hep3B Cells—CRP assay. Hep3B Cell Line is obtained from the American Type Culture Collection (ATCC Catalog No. HB-8064). The Hep3B cell line was derived from liver tissue of […]. The cells are epithelial in morphology and produce tumors in nude mice. The cells produce α-fetoprotein, hepatitis B surface antigen, albumin, α-2-macroglobulin, α-1-antitrypsin, transferrin, plasminogen, complement C3 and β-lipoprotein (Knowles B B, et al., Science, 1980, 209:497–499). This cell line has been widely used to study hepatocyte cytokine and acute phase protein release (e.g., Damtew B, et al., 1993, J Immunol 150:4001–4007).
HEP3B cells are grown in Minimum Essential Medium (MEM; GIBCO) supplemented with 10% Fetal Bovine Serum (FBS; Hyclone), 1× Penicillin/Streptomycin (GIBCO, Cat #. 15140-122) and 0.1 mM non-essential amino acids (GIBCO, Catalog No. 11140-050). Cells are thawed and transferred to warm medium according to standard methods known in the art.
Cells are incubated in flasks at 37° C. with 5% CO2 in an air atmosphere incubator. HEP3B growth media is changed every 2 days until the cells reach 70–80% confluence (approx. 3–4 days). For assay, the cells are transferred to 96-well plates, seeded at 5000 cells per well in culture media, and left to grow for 7 days in a 37° C. incubator (air supplemented with 5% CO2). Media is replaced daily until assay.
Test compounds are diluted into “Stimulus Buffer” (MEM medium containing 0.1 mM non-essential amino acids, 1× penicillin/streptomycin, 10% FBS with 10 ng/ml IL-1β, 20 ng/ml IL-6 and 1 μM dexamethasone. Media is removed from the cells and is replaced with 200 μl of test dilution. Cells are returned to the incubator for three days at 37° C. CRP ELISA is then performed on supernatant from the cells, as described below.
Costar EIA/RIA plates are coated with rabbit anti-human CRP (DAKO) diluted 1:4000 in carbonate buffer (100 μl/well) for 45 minutes at 37° C. Plates are then washed 5× with CRP washing buffer (50 mM Tris-HCI, 0.3M NaCl, […], pH 8.0) using an automatic plate washer. Plates may be dried, covered and refrigerated until use. Supernatant (100 μl) is removed from each well of the test plates and added to the corresponding well of a precoated ELISA plate.
100 μl HRP-conjugated rabbit anti-human CRP (DAKO) diluted 1:500 (in CRP wash buffer) is added to each well, followed by incubation for 30 minutes at 37° C. […] Finally, 50 μl of 1M H2SO4 is added to each well and absorbance at 450 nm is immediately measured in a microtiter spectrophotometer.
CRP measured as above is normalized to cell count per well, using a cell viability assay, such as the Cell Tracker Green assay. […] Plates are immediately read using a Fluoroskan® flourometer with a 485 excitation/538 emission filter pair.

[3] = test system: IL-6 present in edematous fluid; experiment: Carrageenan-induced rat paw edema assay, IL-6 in edematous fluid; format: in vivo; settings: rats

Row | SMILES | reduce inflammation secondary to arachidonic acid (ear punch weight difference) [1] | ELAM production (in words) (expression of ELAM) | reducing CRP production/levels (in words) [2] | IL-6 levels in the edematous fluid (in words) ([3]; 10–100 mg/kg oral pretreatment over 3 days) | reduction in IL-6 present in edematous fluid ([3]; 3 days, 10–100 mg/kg/day oral pre-treatment, p<0.001) | activity in ELAM assay (expression of ELAM; at 1000 micromolar) | reducing CRP levels ([2]; at about 3 to about 10 micromolar, Hep3B cells) | EC50 (expression of ELAM; endothelial cells, LPS and IL-1β, read-out: EC50 reduce the expression of ELAM)
1 | Cc1c(O)cc2c(c1C)OC(C)(CCCC(C)CCCC(C)CCCC(C)C)CC2 (stereo not shown) [gamma-tocopherol, 3,4-dihydro-2,7,8-trimethyl-2-(4,8,12-trimethyltridecyl)-2H-1-benzyopyran-6-ol] | able to reduce inflammation | decreased | effective; also recorded: able to reduce | significantly reduced | 42 | – | – | –
2 | Cc1c(C)c2c(c(C)c1O)CC[C@@](C)(CCC[C@H](C)CCC[C@H](C)CCCC(C)C)O2 (relative stereo) [alpha-tocopherol, [2R-2R*(4R*,8R*)]-3,4-dihydro-2,5,7,8-tetramethyl-2-(4,8,12-trimethyltridecyl)-2H-1-benzopyran-6-ol, reference compound] | – | not | – | – | – | not active | – | –
3 | Cc1cc(O)c(C)c2c1OC(C)(CCCC(C)CCCC(C)CCCC(C)C)CC2 (stereo not drawn) [beta-tocopherol, 3,4-dihydro-2,5,8-trimethyl-2-(4,8,12-trimethyltridecyl)-2H-1-benzopyran-6-ol] | – | decreased | effective; also recorded: able to reduce | – | – | – | about 50% | –
4 | Cc1cc(O)cc2c1O[C@](C)(CCC[C@H](C)CCC[C@H](C)CCCC(C)C)CC2 (relative stereo) [delta-tocopherol, [2R-[2R*(4R*,8R*)]]-3,4-dihydro-2,8-dimethyl-2-(4,8,12-trimethyltridecyl)-2H-1-benzo-pyran-6-ol] | – | decreased | effective; also recorded: able to reduce | – | – | – | – | 300 to 1000 µM and 600 µM
